In patent US20250114345A1, “COMPOUNDS AND COMPOSITIONS AS CBP/P300 DEGRADERS AND USES THEREOF” (Oncopia Therapeutics, Inc. d/b/a/ SK Life Science Labs, priority 2023, published 2025) one finds Dmax and DC50 data, which are given here for twelve compounds.

One experiment has as its target T1, p300 (Homo sapiens, UniProt Q09472).
T1 construct: host or cells: A549 P300 HiBit cells
In words: P300 degradation, HiBit technology in A549 P300 HiBit cells (2 h). It counts as cell-based. Conditions: 2 hrs post treatment; for Dmax: A549, A549 P300 HiBit cells; for DC50: A549 P300 HiBit cells. In a few lines:
(§1)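 Endogenously HiBiT-tagged A549 cells are plated, left overnight, then treated with a compound dilution series at 37 °C and 5% CO2. At the set time, lytic detection buffer is added and plates are shaken 10 min at room temperature before luminescence is measured to derive potency and Dmax.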

Another experiment concerns the target T2, CBP (Homo sapiens, UniProt Q92793).
T2 construct: host or cells: A549 CBP HiBit cells
In words: CBP degradation, HiBit technology in A549 CBP HiBit cells (24 h). It counts as cell-based. Conditions: 24 hrs post treatment. In a few lines:
as §1
On the technique in general: HiBiT is a short tag that completes a luciferase, so light tracks the accessible tagged protein.

T2 sequence (Q92793 whole entry): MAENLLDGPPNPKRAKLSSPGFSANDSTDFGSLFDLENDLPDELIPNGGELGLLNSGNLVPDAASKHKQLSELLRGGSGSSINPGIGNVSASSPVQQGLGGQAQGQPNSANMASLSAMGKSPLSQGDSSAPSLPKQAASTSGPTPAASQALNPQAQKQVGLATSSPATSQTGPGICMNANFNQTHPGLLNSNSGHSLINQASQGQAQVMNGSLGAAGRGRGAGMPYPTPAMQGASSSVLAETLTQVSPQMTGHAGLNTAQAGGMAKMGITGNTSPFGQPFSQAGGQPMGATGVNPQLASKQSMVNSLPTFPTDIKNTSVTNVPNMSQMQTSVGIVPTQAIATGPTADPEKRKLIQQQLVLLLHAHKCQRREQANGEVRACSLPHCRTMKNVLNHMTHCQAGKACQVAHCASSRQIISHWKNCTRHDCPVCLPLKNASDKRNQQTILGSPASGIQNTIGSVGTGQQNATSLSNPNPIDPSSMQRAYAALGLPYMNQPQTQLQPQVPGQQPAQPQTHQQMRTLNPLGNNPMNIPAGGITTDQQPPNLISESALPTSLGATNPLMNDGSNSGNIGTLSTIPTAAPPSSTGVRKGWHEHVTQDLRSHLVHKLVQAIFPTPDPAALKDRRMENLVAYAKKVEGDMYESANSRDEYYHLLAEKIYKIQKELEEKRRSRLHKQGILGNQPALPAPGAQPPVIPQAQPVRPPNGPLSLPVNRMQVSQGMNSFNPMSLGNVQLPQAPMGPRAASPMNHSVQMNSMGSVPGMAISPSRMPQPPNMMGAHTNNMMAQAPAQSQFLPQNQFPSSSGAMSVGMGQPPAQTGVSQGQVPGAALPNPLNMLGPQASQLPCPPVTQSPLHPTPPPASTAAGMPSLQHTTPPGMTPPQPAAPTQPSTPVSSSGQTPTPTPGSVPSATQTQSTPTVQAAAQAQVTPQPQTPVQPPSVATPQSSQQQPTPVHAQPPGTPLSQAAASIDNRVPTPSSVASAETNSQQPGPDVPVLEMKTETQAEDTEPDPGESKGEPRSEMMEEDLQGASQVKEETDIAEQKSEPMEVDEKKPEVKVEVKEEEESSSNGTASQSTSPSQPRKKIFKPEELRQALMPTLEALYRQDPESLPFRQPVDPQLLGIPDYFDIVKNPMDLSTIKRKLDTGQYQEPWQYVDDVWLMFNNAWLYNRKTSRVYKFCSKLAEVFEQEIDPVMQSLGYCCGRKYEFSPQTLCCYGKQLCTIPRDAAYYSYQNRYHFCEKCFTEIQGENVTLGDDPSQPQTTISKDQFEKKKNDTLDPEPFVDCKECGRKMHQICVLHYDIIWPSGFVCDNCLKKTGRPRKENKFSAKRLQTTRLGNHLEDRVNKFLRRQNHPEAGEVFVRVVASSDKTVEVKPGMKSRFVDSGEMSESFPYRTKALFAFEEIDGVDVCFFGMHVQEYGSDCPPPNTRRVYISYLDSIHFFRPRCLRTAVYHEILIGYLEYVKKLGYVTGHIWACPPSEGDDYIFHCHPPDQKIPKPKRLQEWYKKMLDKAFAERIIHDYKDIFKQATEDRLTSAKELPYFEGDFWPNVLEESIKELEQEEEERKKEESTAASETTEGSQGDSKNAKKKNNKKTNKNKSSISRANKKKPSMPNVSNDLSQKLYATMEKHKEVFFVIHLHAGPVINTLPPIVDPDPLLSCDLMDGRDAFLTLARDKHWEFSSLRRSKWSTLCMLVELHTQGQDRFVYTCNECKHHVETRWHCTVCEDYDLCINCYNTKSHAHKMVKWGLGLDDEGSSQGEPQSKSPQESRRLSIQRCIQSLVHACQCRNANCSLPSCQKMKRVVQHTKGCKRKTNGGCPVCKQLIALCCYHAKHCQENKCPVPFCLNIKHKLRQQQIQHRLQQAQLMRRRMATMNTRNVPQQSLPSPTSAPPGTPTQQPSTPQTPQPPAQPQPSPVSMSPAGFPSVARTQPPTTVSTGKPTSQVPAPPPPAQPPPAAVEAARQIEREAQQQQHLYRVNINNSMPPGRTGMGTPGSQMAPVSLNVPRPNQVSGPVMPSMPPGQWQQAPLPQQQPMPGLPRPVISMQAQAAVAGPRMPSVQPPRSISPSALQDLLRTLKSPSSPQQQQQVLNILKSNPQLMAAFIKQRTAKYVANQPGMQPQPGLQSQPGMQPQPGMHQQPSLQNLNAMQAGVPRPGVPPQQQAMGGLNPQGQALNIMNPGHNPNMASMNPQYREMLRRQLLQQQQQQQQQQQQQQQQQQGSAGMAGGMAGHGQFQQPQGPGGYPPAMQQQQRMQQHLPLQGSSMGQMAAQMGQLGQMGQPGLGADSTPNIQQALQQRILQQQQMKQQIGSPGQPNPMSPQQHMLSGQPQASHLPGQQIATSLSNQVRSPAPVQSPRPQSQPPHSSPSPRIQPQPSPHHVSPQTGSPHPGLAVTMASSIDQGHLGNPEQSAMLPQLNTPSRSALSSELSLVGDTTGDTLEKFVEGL
T1 sequence (Q09472 whole entry): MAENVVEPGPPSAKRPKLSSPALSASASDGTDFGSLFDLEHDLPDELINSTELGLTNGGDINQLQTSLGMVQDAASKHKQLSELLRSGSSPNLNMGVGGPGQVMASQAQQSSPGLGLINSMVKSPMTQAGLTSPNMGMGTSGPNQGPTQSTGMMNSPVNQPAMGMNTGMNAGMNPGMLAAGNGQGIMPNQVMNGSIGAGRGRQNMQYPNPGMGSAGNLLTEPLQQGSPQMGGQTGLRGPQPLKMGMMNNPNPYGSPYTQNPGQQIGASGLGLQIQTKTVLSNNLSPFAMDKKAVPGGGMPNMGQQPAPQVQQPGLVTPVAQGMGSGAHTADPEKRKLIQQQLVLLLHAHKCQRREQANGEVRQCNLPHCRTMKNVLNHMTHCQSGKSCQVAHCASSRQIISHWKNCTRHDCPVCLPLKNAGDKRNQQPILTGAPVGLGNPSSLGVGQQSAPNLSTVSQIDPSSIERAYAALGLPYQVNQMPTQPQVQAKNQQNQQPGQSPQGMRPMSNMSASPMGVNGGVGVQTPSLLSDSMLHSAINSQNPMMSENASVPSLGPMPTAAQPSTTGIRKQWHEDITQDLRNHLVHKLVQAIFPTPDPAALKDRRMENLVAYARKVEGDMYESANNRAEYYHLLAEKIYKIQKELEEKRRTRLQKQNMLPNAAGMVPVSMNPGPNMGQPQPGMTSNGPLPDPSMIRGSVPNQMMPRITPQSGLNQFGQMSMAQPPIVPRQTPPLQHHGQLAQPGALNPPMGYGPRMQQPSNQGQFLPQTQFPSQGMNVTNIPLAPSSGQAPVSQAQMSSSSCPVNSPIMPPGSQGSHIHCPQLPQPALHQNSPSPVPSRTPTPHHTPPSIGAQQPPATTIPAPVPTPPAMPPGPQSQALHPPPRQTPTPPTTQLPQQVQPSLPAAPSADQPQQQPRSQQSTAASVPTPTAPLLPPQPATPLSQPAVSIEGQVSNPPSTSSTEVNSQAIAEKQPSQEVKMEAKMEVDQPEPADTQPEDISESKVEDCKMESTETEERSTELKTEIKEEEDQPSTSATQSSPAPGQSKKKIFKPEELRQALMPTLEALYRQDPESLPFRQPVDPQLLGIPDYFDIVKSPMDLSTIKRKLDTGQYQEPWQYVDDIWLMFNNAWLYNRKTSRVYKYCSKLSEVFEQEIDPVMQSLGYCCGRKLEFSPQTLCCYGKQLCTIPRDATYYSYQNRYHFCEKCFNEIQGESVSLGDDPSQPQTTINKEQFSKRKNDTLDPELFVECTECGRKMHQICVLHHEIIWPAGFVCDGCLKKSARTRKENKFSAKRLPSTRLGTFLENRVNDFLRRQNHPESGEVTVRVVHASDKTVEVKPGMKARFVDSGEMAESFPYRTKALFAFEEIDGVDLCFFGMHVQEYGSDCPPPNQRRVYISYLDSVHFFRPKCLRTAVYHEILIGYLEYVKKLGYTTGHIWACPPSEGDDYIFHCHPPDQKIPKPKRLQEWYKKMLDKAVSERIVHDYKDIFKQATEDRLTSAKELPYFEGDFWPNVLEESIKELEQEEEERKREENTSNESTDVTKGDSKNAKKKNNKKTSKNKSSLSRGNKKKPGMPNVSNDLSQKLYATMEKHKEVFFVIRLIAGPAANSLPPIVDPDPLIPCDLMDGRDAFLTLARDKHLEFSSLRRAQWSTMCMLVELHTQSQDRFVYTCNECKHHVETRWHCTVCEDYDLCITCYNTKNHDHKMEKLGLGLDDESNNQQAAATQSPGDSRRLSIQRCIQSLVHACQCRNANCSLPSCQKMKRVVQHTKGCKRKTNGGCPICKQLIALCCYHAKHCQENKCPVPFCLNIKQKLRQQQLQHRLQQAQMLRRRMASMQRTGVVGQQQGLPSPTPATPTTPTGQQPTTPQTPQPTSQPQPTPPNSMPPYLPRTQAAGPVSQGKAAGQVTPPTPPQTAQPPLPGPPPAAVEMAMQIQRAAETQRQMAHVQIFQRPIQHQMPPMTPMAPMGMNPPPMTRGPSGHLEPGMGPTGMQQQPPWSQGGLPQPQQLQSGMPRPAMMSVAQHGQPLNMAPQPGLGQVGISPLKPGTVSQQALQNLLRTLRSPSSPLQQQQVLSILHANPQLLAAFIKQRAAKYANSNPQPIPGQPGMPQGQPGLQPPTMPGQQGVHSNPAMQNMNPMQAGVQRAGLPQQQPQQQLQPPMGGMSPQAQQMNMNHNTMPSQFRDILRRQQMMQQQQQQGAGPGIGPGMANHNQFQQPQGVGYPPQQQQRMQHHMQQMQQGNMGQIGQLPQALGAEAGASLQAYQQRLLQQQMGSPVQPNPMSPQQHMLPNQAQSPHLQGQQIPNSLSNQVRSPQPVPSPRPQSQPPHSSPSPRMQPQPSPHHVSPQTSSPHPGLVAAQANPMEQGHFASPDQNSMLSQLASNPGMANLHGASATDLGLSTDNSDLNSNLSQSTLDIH

At p300, `Cc1cc2c(N3CCCc4nc(-c5ccc(C(=O)NCC#Cc6cc7c(C8CCC(=O)NC8=O)nccc7n6C)nc5)ncc43)cc(C3CCOCC3)cc2n(C)c1=O` (stereo not drawn) [Example B136, 5-(5-(1,3-dimethyl-2-oxo-7-(tetrahydro-2H-pyran-4-yl)-1,2-dihydroquinolin-5-yl)-5,6,7,8-tetrahydropyrido[3,2-d]pyrimidin-2-yl)-N-(3-(4-(2,6-dioxopiperidin-3-yl)-1-methyl-1H-pyrrolo[3,2-c]pyridin-2-yl)prop-2-yn-1-yl) picolinamide] displayed a Dmax of 60 to 79% and a half-maximal degradation concentration (DC50) of 1 to 9.9 nM. At CBP, this compound displayed a 50% degradation concentration (DC50) greater than 1000 nM and a maximal degradation (Dmax) of less than 20%.
Consider `Cc1cc2c(-c3cccc4cc(-c5ccc(C(=O)NCC#Cc6ccc7occ(C8CCC(=O)NC8=O)c7c6)nc5)ncc34)nc(OC(C)C)cc2n(C)c1=O` (stereo not drawn) [Example B88, N-(3-(3-(2,6-dioxopiperidin-3-yl)benzofuran-5-yl)prop-2-yn-1-yl)-5-(8-(7-isopropoxy-1,3-dimethyl-2-oxo-1,2-dihydro-1,6-naphthyridin-5-yl)isoquinolin-3-yl)picolinamide], for which, at p300, the maximal degradation (Dmax) was greater than 80% and the 50% degradation concentration (DC50) lay within 1 to 9.9 nM. On CBP, this compound returned a DC50 greater than 1000 nM and a Dmax of less than 20%.
Taken in the same sequence, the figures for `Cc1cc2c(N3CCCc4nc(-c5ccc(C(=O)NCC#Cc6ccc7occ(C89CC(C8)C(=O)NC9=O)c7c6)nc5)ncc43)cc(C3CCOCC3)cc2n(C)c1=O` [Example B107, 5-(5-(1,3-dimethyl-2-oxo-7-(tetrahydro-2H-pyran-4-yl)-1,2-dihydroquinolin-5-yl)-5,6,7,8-tetrahydropyrido[3,2-d]pyrimidin-2-yl)-N-(3-(3-(2,4-dioxo-3-azabicyclo[3.1.1]heptan-1-yl)benzofuran-5-yl)prop-2-yn-1-yl) picolinamide] were 60 to 79%, 1 to 9.9 nM, greater than 1000 nM and less than 20%.
The corresponding values for `Cn1c(=O)n(C)c2c(N3C4COCC3C4)nc(-c3cccc4cc(-c5ccc(C(=O)NCC#Cc6ccc7occ(C8CCC(=O)NC8=O)c7c6)nc5)ncc34)cc21` (stereo not drawn) [Example A99, 5-(8-(4-(3-oxa-6-azabicyclo[3.1.1]heptan-6-yl)-1,3-dimethyl-2-oxo-2,3-dihydro-1H-imidazo[4,5-c]pyridin-6-yl)isoquinolin-3-yl)-N-(3-(3-(2,6-dioxo-piperidin-3-yl)benzofuran-5-yl)prop-2-yn-1-yl)picolinamide] are greater than 80%, less than 1 nM, greater than 1000 nM and less than 20%.
Consider `Cn1nc(C2CCC(=O)NC2=O)c2cc(C#CCNC(=O)c3ccc(-c4ncc5c(n4)OCCN5c4ccc5c(c4)n(C)c(=O)n5C)cn3)ccc21` (stereo not drawn) [Example A243, 5-(5-(1,3-dimethyl-2-oxo-2,3-dihydro-1H-benzo[d]imidazol-5-yl)-6,7-dihydro-5H-pyrimido[4,5-b][1,4]oxazin-2-yl)-N-(3-(3-(2,6-dioxopiperidin-3-yl)-1-methyl-1H-indazol-5-yl)prop-2-yn-1-yl)picolinamide], for which the values for the greatest degradation seen (Dmax) at p300 and on CBP were greater than 80% and less than 20%, respectively. Further, the DC50 was 1 to 9.9 nM on p300 and greater than 1000 nM on CBP.
For the compound `CC(C)c1cc(-c2cccc3cc(-c4ccc(C(=O)NCC#Cc5ccc6ccnc(C7CCC(=O)NC7=O)c6c5)nc4)ncc23)cc2c1n(C)c(=O)n2C` (stereo not drawn) [Example A10, N-(3-(1-(2,6-Dioxopiperidin-3-yl)isoquinolin-7-yl)prop-2-yn-1-yl)-5-(8-(7-isopropyl-1,3-dimethyl-2-oxo-2,3-dihydro-1H-benzo[d]imidazol-5-yl)isoquinolin-3-yl)picolinamide], on p300, the Dmax lay within 60 to 79% and the DC50 is 10 to 99 nM. On CBP, this compound returned a 50% degradation concentration (DC50) greater than 1000 nM and a Dmax of less than 20%.
The corresponding values for `Cc1cc(-c2ncc(N(C)c3cc(C4CCOCC4)c4c(c3)n(C)c(=O)n4C)cn2)cnc1C(=O)NCC#Cc1ccc2occ([C@@H]3CCC(=O)NC3=O)c2c1` [Example A55, (S)-5-(5-((1,3-dimethyl-2-oxo-7-(tetrahydro-2H-pyran-4-yl)-2,3-dihydro-1H-benzo[d]imidazol-5-yl)(methyl)amino)pyrimidin-2-yl)-N-(3-(3-(2,6-dioxo-piperidin-3-yl)benzofuran-5-yl)prop-2-yn-1-yl)-3-methylpicolinamide] are greater than 80%, 1 to 9.9 nM, greater than 1000 nM and less than 20%.
The corresponding values for `CC(C)c1cc(N2CCOc3cc(-c4ccc(C(=O)NCC#Cc5ccn6ncc(C7CCC(=O)NC7=O)c6c5)nc4)ncc32)cc2c1n(C)c(=O)n2C` (stereo not drawn) [Example A161, N-(3-(3-(2,6-dioxo-piperidin-3-yl)pyrazolo[1,5-a]pyridin-5-yl)prop-2-yn-1-yl)-5-(4-(7-isopropyl-1,3-dimethyl-2-oxo-2,3-dihydro-1H-benzo[d]imidazol-5-yl)-3,4-dihydro-2H-pyrido[4,3-b][1,4]oxazin-7-yl)picolinamide] are greater than 80%, less than 1 nM, 100 to 999 nM and less than 20%.
The corresponding values for `Cc1cc(-c2cc3c(cn2)N(c2cccc4c2cc(C)c(=O)n4C)CCO3)cnc1C(=O)NCC#Cc1ccc2occ(C3CCC(=O)NC3=O)c2c1` (stereo not drawn) [Example B83, 5-(4-(1,3-dimethyl-2-oxo-1,2-dihydroquinolin-5-yl)-3,4-dihydro-2H-pyrido[4,3-b][1,4]oxazin-7-yl)-N-(3-(3-(2,6-dioxopiperidin-3-yl)benzofuran-5-yl)prop-2-yn-1-yl)-3-methylpicolinamide] are greater than 80%, 1 to 9.9 nM, 100 to 999 nM and 40 to 59%.
On to `CC(C)c1cc(-c2cccc3cc(-c4ccc(C(=O)NCC#Cc5ccc6c(c5)c(C5CCC(=O)NC5=O)nn6C)nc4)ncc23)cc2c1n(C)c(=O)n2C` (stereo not drawn) [Example A5, N-(3-(3-(2,6-Dioxopiperidin-3-yl)-1-methyl-1H-indazol-5-yl)prop-2-yn-1-yl)-5-(8-(7-isopropyl-1,3-dimethyl-2-oxo-2,3-dihydro-1H-benzo[d]imidazol-5-yl)isoquinolin-3-yl)picolinamide], for which the maximal degradation (Dmax) at p300 and at CBP was greater than 80% in each case. Further, the 50% degradation concentration (DC50) at p300 was 1 to 9.9 nM; on CBP it was 10 to 99 nM.
In the case of `Cc1cc(-c2cc3cccc(-c4cc(F)c5c(c4)n(C)c(=O)n5C)c3cn2)cnc1C(=O)NCC#Cc1ccc2occ(C3CCC(=O)NC3=O)c2c1` (stereo not drawn) [Example A66, N-(3-(3-(2,6-dioxopiperidin-3-yl)benzofuran-5-yl)prop-2-yn-1-yl)-5-(8-(7-fluoro-1,3-dimethyl-2-oxo-2,3-dihydro-1H-benzo[d]imidazol-5-yl)isoquinolin-3-yl)-3-methylpicolinamide], on p300, the greatest degradation seen (Dmax) is greater than 80% and the DC50 lay within 1 to 9.9 nM. At CBP, the half-maximal degradation concentration (DC50) was greater than 1000 nM and the maximal degradation (Dmax) is less than 20%.
The corresponding values for `CC(C)c1cc(-c2cccc3cc(-c4ccc(C(=O)NCC#Cc5cccc(NC67CC(C6)C(=O)NC7=O)c5)nc4)ncc23)cc2c1n(C)c(=O)n2C` [Example A2, N-(3-(3-((2,4-Dioxo-3-azabicyclo[3.1.1]heptan-1-yl)amino)phenyl)prop-2-yn-1-yl)-5-(8-(7-isopropyl-1,3-dimethyl-2-oxo-2,3-dihydro-1H-benzo[d]imidazol-5-yl)isoquinolin-3-yl)picolinamide] are greater than 80%, 10 to 99 nM, greater than 1000 nM and less than 20%.

Broadly, the Dmax is the greatest extent of degradation seen. A low value points to shallow degradation. In general, DC50 refers to the midpoint of the concentration-degradation curve. A high value points to a less potent degrader.
